“Also recorded” adds a separate entry of the source.

The subject of data set [1] is MN9D cells. To be noted: cited from earlier work.
The nature of data set [2]: Prevention of NAPQI-induced GSH sulfhydryl loss by 1,3-dicarbonyl compounds (in chemico). It is filed as biochemical. The source says: FIG. 3. […] Numbers in parentheses are respective IC50 values.
FIG. 4. […] Numbers in parentheses are respective IC50 values.
(§1) However, acrolein and other electrophiles used in this research are α,β-unsaturated carbonyls, whereas NAPQI and pBQ are quinone derivatives. […] Although both compounds are relatively acidic (low pKa values), thiol protection is limited since the corresponding adduct reactions involving the enolates of these acids are likely to be reversible. […] 2-ACP was the most protective 1,3-dicarbonyl compound tested in this and other studies^54 and was, therefore, the focus of subsequent research. […] 2-ACP (50 μM) was also effective at protecting thiol loss induced by pBQ, the degradation product of NAPQI (data not shown). […] These electrophiles target nucleophilic sulfhydryl groups that play critical roles in protein function and cellular redox balance.

Data set [3] has as its system Rat striatal synaptosomes. Conditions: acrolein 1-1000 μM with cytoprotectant 500 μM; cited from earlier work.
The test system of the next data set is rat liver. The data set is described as follows: Acute ischemia-reperfusion injury of rat liver. It is filed as in vivo, rats. The procedure:
FIG. 9. Effect of 2-ACP on liver ischemia. 2-ACP (2.40 mmol/kg) or vehicle was injected i.p. 10 mins before clamping the portal vasculature for 45 mins. At the completion of the Ischemic phase, clamps were removed and the liver was reperfused for 180 mins. Following reperfusion, blood samples were removed for analysis of liver enzymes (ALT, AST) and LDH in plasma. Joining lines indicate statistically significant differences in treatment groups at ***P<0.001 level of significance.
FIG. 10. Effect of 2-ACP on liver reperfusion. 2-ACP (2.40 mmol/kg) or vehicle was injected i.p. 10 mins before restoration of hepatic circulation (reperfusion phase). At the completion of reperfusion, blood samples were removed for analysis of liver enzymes (ALT, AST) and LDH (a general enzyme indicator of tissue injury) in plasma. Joining lines indicate statistically significant differences in treatment groups at ***P<0.001 level of significance.
FIG. 11. […] At the completion of reperfusion, blood samples were removed for analysis of liver enzymes (ALT, AST) and LDH (a general enzyme indicator of tissue injury) in plasma. Joining lines indicate statistically significant differences in treatment groups at ***P<0.001 level of significance.
IR injury is the pathophysiological basis for stroke, myocardial infarction and other organ failure. It is also an underlying cause of allograft rejection following tissue transplantation. To investigate the possibility that 2-ACP and other nucleophilic dicarbonyl derivatives might be useful in preventing IR-mediated organ damage, rats were anesthetized and I/R was induced by clamping the portal vein and hepatic artery using commercially available microclips placed at the porta hepatis. The ischemic state was maintained for 45 mins, which affected approximately 70% of the liver mass. Following removal of the microclamps, hepatic reperfusion was maintained for 180 min. Animals were then sacrificed and plasma samples were taken for subsequent analysis of lactate dehydrogenase (LDH; a general enzyme indicator of cell injury) and liver enzymes (AST and ALT). […] A sham group (laparotomy only) provided baseline data for the appearance of liver enzyme in plasma. […] This level of hepatocyte leakage indicates substantial irreversible cell injury. […] Thus, prior 2-ACP administration is able to diminish the pathophysiological disposition of the ischemic phase. Further, amelioration of the ischemic phase truncates subsequent culmination of hepatocyte injury during reperfusion. To determine whether hepatoprotection was phase-specific and dose-dependent, 2-ACP (1.20-2.40 mmol/kg) was injected i.p. 10 mins prior to the restoration of hepatic circulation (reperfusion phase).

Data set [4] relates to MN9D cells. To be noted: pre-incubation; cited from earlier work.
The nature of data set [5]: Ionization parameters (pKa, % anion). It is filed as physicochemical.
Data set [6] can be described thus: Protection against pBQ-induced thiol loss (in chemico). It is filed as biochemical. Conditions: 50 μM.
Text: as §1

Another data set concerns male C57 BL mice. The data set is described as follows: Mouse model of oral acetaminophen (APAP) overdose hepatotoxicity/lethality. It is filed as in vivo. The protocol:
FIG. 7A-7B. […] Hepatoprotectants were administered 20 mins before (−20), 20 mins after (+20) or 60 mins after (+60) APAP intoxication.
A separate group received the PEG400 vehicle 20 mins prior to AAP. […] Vehicle control mice (n=10) received sequential injections of PEG400 (i.p. followed by oral). At several times post-AAP administration (2, 6, 24, 48 and 168 hrs), groups of mice were anesthetized in a carbon dioxide chamber and heparinized blood samples were collected. Samples were centrifuged and resulting serum was retained for analyses (see below). Livers were also excised, weighed and tissue samples were collected for histopathological evaluation. Remaining tissue was snap frozen in liquid nitrogen. Hepatotoxicity was determined by quantification of serum alanine aminotransferase (ALT) and aspartate aminotransferase (AST) using colorimetric assays. Serum lactate dehydrogenase (LDH) was also measured as an index of generalized AAP-induced organ toxicity. To evaluate the extent of cellular oxidative stress in liver homogenates, the unsaturated aldehyde by-products of lipid peroxidation, HNE and malondialdhyde (MDA), were determined according to a modification of the Gerard-Monnier et al. method^27. In addition, soluble thiol contents were measured in homogenates according to LoPachin et al.^44.

The conditions of data set [7]: physiological conditions (pH 7.4); cited from earlier work.

With `CC(=O)C1CCCC1=O` (stereo not drawn) [2-ACP, 2-acetylcyclopentanone], in the data set with MN9D cells [1], the “protection against H2O2-induced cell death” value is “completely prevented cell death”. Also, the “thiol protection against NAPQI over concentration range” value in data set [2] (2-ACP 25-200 μM, NAPQI 2-128 μM) is recorded as “provides thiol protection over a broad range of concentrations”. Further, the “prevention of NAPQI-induced thiol loss” value in data set [2] (equimolar concentrations (50 μM), pH 7.4) is “three-fold increase in the respective IC50 value”. Besides, in [3], the “change in acrolein IC50 for synaptosomal DA transport inhibition” value was “largest increases”. Further, the “plasma liver enzymes (ALT, AST) and LDH after I/R” value with rat liver (i.p. 2.40 mmol/kg 10 mins before ischemia (45 min), reperfusion 180 min) is on record as “considerable reductions in the plasma appearance of liver enzymes”; with rat liver (i.p. 10 mins before reperfusion, 2-ACP 1.20-2.40 mmol/kg, equimolar NAC), “substantial hepatocyte dose-dependent protection”. The “protection from acrolein-induced cell loss” value in the data set on MN9D cells [4] was “completely prevented”. Moreover, in [5] (pH = 7.4), the “% Anion (pH = 7.4)” value was determined as 28.5%. Also, the “fraction present as nucleophilic enolate/thiolate anion” value in data set [5] (physiological pH (7.4)) is recorded as approximately 30%. Also, the “protection of thiol loss induced by pBQ” value in [6] is given as “effective”. Besides, the “changes in hepatic parameters, compound alone” value in the data set on male C57 BL mice (compound alone, no APAP) is “neither NAC nor ACP alone caused significant changes”. Further, the “protection from APAP-induced lethality (survival)” value in the data set on male C57 BL mice (i.p. 2.40 mmol/kg, 20 min after (+20) APAP) is reported as “complete protection”; with male C57 BL mice (i.p. 2.40 mmol/kg, 20 min before oral APAP 500 mg/kg, 7 day period) it was “completely prevented APAP lethality; also recorded: complete protection”; in the data set with male C57 BL mice (i.p. 2.40 mmol/kg, 60 min after (+60) APAP), “ineffective”; with male C57 BL mice (oral gavage 2.40 mmol/kg, 20 min before oral APAP) it was “modest improvements in APAP survival rate”. In the data set on male C57 BL mice (i.p. pretreatment, oral APAP), the “biochemical indices of hepatocyte death (plasma ALT, AST, LDH) and oxidative stress (liver thiol loss, unsaturated aldehyde content)” value is “prevented APAP-induced liver cell death”. The “histopathology: liver centrilobular necrosis” value in the data set with male C57 BL mice (i.p. pretreatment, oral APAP) was “prevented the liver centrilobular necrosis”. The “dose-dependency of protection from APAP-induced lethality” value in the data set on male C57 BL mice (i.p. pretreatment, 2-ACP 0.80-2.40 mmol/kg, NAC 4.80-7.20 mmol/kg) is “dose-dependent, although it occurred over a narrow dose-range”. For the same molecule, the “oral hepatoprotection at increased dose” value with male C57 BL mice (oral 4.80 mmol/kg) is “improved oral 2-ACP hepatoprotection”. The “oral hepatoprotection with buffered gavage solution” value with male C57 BL mice (oral, HEPES buffer pH 9.0) is given as “improved oral 2-ACP hepatoprotection”. In addition, the “effect on rate of acrolein-induced sulfhydryl (thiol) loss” value in [7] is given as “completely prevented”.

Values taken from patent US10104882B2, “Methods and compositions for preventing and treating electrophile-mediated toxicities” (priority 2013, dated 2018).
